Experiment [1] relates to HCV genotype 1b (Con1) replicon in HUH-7 cells. In words: HCV replicon luciferase reporter assay, genotype 1b. In kind it is cell-based. The settings on record: Hepatitis C virus, Huh-7, 72 h, HCV genotype 1b replicon luciferase, 3 days incubation. The method, boiled down: (§1)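 Replicon inhibition for both genotypes was measured as Renilla luciferase signal (EnduRen, 7.5 μM final, 2 h) after 3-day, 37° C exposure of replicon-bearing HUH-7 cells in 4% FCS DMEM, 0.5% DMSO. The 1b construct carries S1179I; the 1a H77 construct carries P1496L and S2204I. Twenty-point, 3-fold dilutions were fitted four-parametrically for EC50, and CC50 was taken from multiplexed Cell Titer-Blue.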
(In antiviral work, replicon cells carry a viral genome segment that copies itself.)

Experiment [2] concerns HCV genotype 1a (H77 strain) replicon in HUH-7 cells. In words: HCV replicon luciferase reporter assay, genotype 1a. Format: cell-based. The settings on record: Hepatitis C virus, Huh-7, 72 h, HCV genotype 1a replicon luciferase, 3 days incubation. The method, boiled down:
as §1

Setting [3] is: GETYPE1B, read-out: LE_1b (EC50, range).
The mark [4] stands for this setting: GETYPE1A, read-out: LE_1a (EC50, range).

Molecules are shown by their SMILES. pEC50: −log10 of the molar value. Like-named read-outs stand apart in the source and are kept apart here.

Broadly, the pEC50 is −log10 of the EC50, conventionally taken in molar units.

Take `CCOc1ccc2ncc(O[C@@H]3C[C@H]4C(=O)N[C@]5(C(=O)NS(=O)(=O)C6(C)CC6)C[C@H]5/C=C\CC[C@@H](C)C[C@@H](C)[C@H](NC(=O)OC(C)(C)C(F)(F)F)C(=O)N4C3)cc2c1` [Compound 4313]: the pEC50 was 9.30 to 10.00 in experiment [1] (setting [3]) and 9.00 to 9.29 in experiment [2] (setting [4]).
Consider `CCOc1ccc2ncc(O[C@@H]3C[C@H]4C(=O)N[C@]5(C(=O)NS(=O)(=O)C6(C)CC6)C[C@H]5/C=C\CC[C@@H](C)C[C@@H](CC)[C@H](NC(=O)OC(C)(C)C(F)(F)F)C(=O)N4C3)cc2c1` [Compound 4314], for which the pEC50 in experiment [1] (setting [3]) and in experiment [2] (setting [4]) was 8.30 to 9.00 throughout.
For the compound `COc1ccc2nc(C(C)C)c(O[C@@H]3C[C@H]4C(=O)N[C@]5(C(=O)NS(=O)(=O)C6CC6)C[C@H]5/C=C\CC[C@H](C)C[C@@H](C)[C@H](NC(=O)OC(C)(C)C)C(=O)N4C3)nc2c1` [Compound 4315, tert-butyl ((2R,6S,7R,9S,13aS,14aR,16aS,Z)-14a-((cyclopropylsulfonyl)carbamoyl)-2-((3-isopropyl-7-methoxyquinoxalin-2-yl)oxy)-7,9-dimethyl-5,16-dioxo-1,2,3,5,6,7,8,9,10,11,13a,14,14a,15,16,16a-hexadecahydrocyclopropa[e]pyrrolo[1,2-a][1,4]diazacyclopentadecin-6-yl)carbamate], the pEC50 was 8.30 to 9.00 in experiment [1] (read-out: LE_1b (EC50, range)) and 7.46 to 8.30 in experiment [2] (read-out: LE_1a (EC50, range)).
For the compound `COc1ccc2nc(C(C)C)c(O[C@@H]3C[C@H]4C(=O)N[C@]5(C(=O)NS(=O)(=O)C6CC6)C[C@H]5/C=C\CC[C@@H](C)C[C@@H](C)[C@H](NC(=O)OC(C)(C)C)C(=O)N4C3)nc2c1` [Compound 4316, tert-butyl ((2R,6S,7R,9R,13aS,14aR,16aS,Z)-14a-((cyclopropylsulfonyl)carbamoyl)-2-((3-isopropyl-7-methoxyquinoxalin-2-yl)oxy)-7,9-dimethyl-5,16-dioxo-1,2,3,5,6,7,8,9,10,11,13a,14,14a,15,16,16a-hexadecahydrocyclopropa[e]pyrrolo[1,2-a][1,4]diazacyclopentadecin-6-yl)carbamate], the pEC50 in experiment [1] (read-out: LE_1b (EC50, range)) is 8.30 to 9.00; in experiment [2] (read-out: LE_1a (EC50, range)) it was 8.30 to 9.00.
With `COc1ccc2nc(C(C)C)c(O[C@@H]3C[C@H]4C(=O)N[C@]5(C(=O)NS(=O)(=O)C6CC6)C[C@H]5/C=C\CC[C@@H](C)C[C@@H](C)[C@H](NC(=O)OC(C)(C)C(F)(F)F)C(=O)N4C3)nc2c1` [Compound 4317], the pEC50 in experiment [1] (setting [3]) and in experiment [2] (setting [4]) was 8.30 to 9.00 in each case.
Consider `COc1ccc2nc(C(C)C)c(O[C@@H]3C[C@H]4C(=O)N[C@]5(C(=O)NS(=O)(=O)C6CC6)C[C@H]5/C=C\CC[C@H](C)C[C@@H](C)[C@H](NC(=O)OC(C)(C)C(F)(F)F)C(=O)N4C3)nc2c1` [Compound 4318], for which the pEC50 was 8.30 to 9.00 in experiment [1] (setting [3]) and 7.46 to 8.30 in experiment [2] (setting [4]).
Consider `COc1ccc2c(O[C@@H]3C[C@H]4C(=O)N[C@]5(C(=O)NS(=O)(=O)C6(C)CC6)C[C@H]5/C=C\CC[C@@H](C)C[C@@H](C)[C@H](NC(=O)OC(C)(C)C)C(=O)N4C3)cnnc2c1` [Compound 4319, tert-butyl ((2R,6S,7R,9R,13aS,14aR,16aS,Z)-2-((7-methoxycinnolin-4-yl)oxy)-7,9-dimethyl-14a-(((1-methylcyclopropyl)sulfonyl)carbamoyl)-5,16-dioxo-1,2,3,5,6,7,8,9,10,11,13a,14,14a,15,16,16a-hexadecahydrocyclopropa[e]pyrrolo[1,2-a][1,4]diazacyclopentadecin-6-yl)carbamate], for which the pEC50 in experiment [1] (read-out: LE_1b (EC50, range)) was 6.21 to 7.46; in experiment [2] (read-out: LE_1a (EC50, range)) it was 7.46 to 8.30.
Turning to `CC[C@@H]1C[C@H](C)CC/C=C\[C@@H]2C[C@@]2(C(=O)NS(=O)(=O)C2(C)CC2)NC(=O)[C@@H]2C[C@@H](Oc3cnnc4cc(OC)ccc34)CN2C(=O)[C@H]1NC(=O)OC(C)(C)C(F)(F)F` [Compound 4320], the negative logarithm of the EC50 (pEC50) in experiment [1] (GETYPE1B, read-out: LE_1b (EC50)) was 7.66; in experiment [1] (setting [3]) it was 7.46 to 8.30; in experiment [2] (GETYPE1A, read-out: LE_1a (EC50)), 7.82; in experiment [2] (setting [4]), 7.46 to 8.30.
`CC[C@@H]1C[C@H](C)CC/C=C\[C@@H]2C[C@@]2(C(=O)NS(=O)(=O)C2(C)CC2)NC(=O)[C@@H]2C[C@@H](Oc3cnnc4cc(OC)ccc34)CN2C(=O)[C@H]1NC(=O)OC(C)(C)C` [Compound 4321, tert-butyl ((2R,6S,7R,9R,13aS,14aR,16aS,Z)-7-ethyl-2-((7-methoxycinnolin-4-yl)oxy)-9-methyl-14a-(((1-methylcyclopropyl)sulfonyl)carbamoyl)-5,16-dioxo-1,2,3,5,6,7,8,9,10,11,13a,14,14a,15,16,16a-hexadecahydrocyclopropa[e]pyrrolo[1,2-a][1,4]diazacyclopentadecin-6-yl)carbamate]: the pEC50 in experiment [1] (read-out: LE_1b (EC50, range)) was 7.46 to 8.30; in experiment [2] (read-out: LE_1a (EC50, range)) it was 7.46 to 8.30.
Regarding `COc1ccc2c(O[C@@H]3C[C@H]4C(=O)N[C@]5(C(=O)NS(=O)(=O)C6(C)CC6)C[C@H]5/C=C\CC[C@@H](C)C[C@@H](C)[C@H](NC(=O)OC(C)(C)C(F)(F)F)C(=O)N4C3)cnnc2c1` [Compound 4322], the pEC50 in experiment [1] (setting [3]) and in experiment [2] (setting [4]) was 7.46 to 8.30 each time.
Turning to `CC[C@@H]1C[C@H](C)CC/C=C\[C@@H]2C[C@@]2(C(=O)NS(=O)(=O)C2(C)CC2)NC(=O)[C@@H]2C[C@@H](Oc3ncc(OC)c4ccc(F)cc34)CN2C(=O)[C@H]1NC(=O)C1(C(F)(F)F)CC1` [Compound 4323, (2R,6S,7R,9R,13aS,14aR,16aS,Z)-7-ethyl-2-((7-fluoro-4-methoxyisoquinolin-1-yl)oxy)-9-methyl-N-((1-methylcyclopropyl)sulfonyl)-5,16-dioxo-6-(1-(trifluoromethyl)cyclopropanecarboxamido)-1,2,3,5,6,7,8,9,10,11,13a,14,14a,15,16,16a-hexadecahydrocyclopropa[e]pyrrolo[1,2-a][1,4]diazacyclopentadecine-14a-carboxamide], the pEC50 in experiment [1] (read-out: LE_1b (EC50, range)) is 9.00 to 9.29; in experiment [2] (read-out: LE_1a (EC50, range)) it was 8.30 to 9.00.
The matching figures for `CC[C@@H]1C[C@H](C)CC/C=C\[C@@H]2C[C@@]2(C(=O)NS(=O)(=O)C2(C)CC2)NC(=O)[C@@H]2C[C@@H](Oc3ncc(OC)c4ccc(F)cc34)CN2C(=O)[C@H]1NC(=O)C(C)(C)C(F)(F)F` [Compound 4324, (2R,6S,7R,9R,13aS,14aR,16aS,Z)-7-ethyl-2-((7-fluoro-4-methoxyisoquinolin-1-yl)oxy)-9-methyl-N-((1-methylcyclopropyl)sulfonyl)-5,16-dioxo-6-(3,3,3-trifluoro-2,2-dimethylpropanamido)-1,2,3,5,6,7,8,9,10,11,13a,14,14a,15,16,16a-hexadecahydrocyclopropa[e]pyrrolo[1,2-a][1,4]diazacyclopentadecine-14a-carboxamide]: 9.00 to 9.29 and 8.30 to 9.00.
Take `CC[C@@H]1C[C@H](C)CC/C=C\[C@@H]2C[C@@]2(C(=O)NS(=O)(=O)C2(CO)CC2)NC(=O)[C@@H]2C[C@@H](Oc3nccc4cc(OC)c(F)cc34)CN2C(=O)[C@H]1NC(=O)OC(C)(C)C(F)(F)F` [Compound 4325]: the pEC50 is 7.46 to 8.30 in experiment [1] (setting [3]) and 6.21 to 7.46 in experiment [2] (setting [4]).
The corresponding values for `CC[C@@H]1C[C@@H](C)CC/C=C\[C@@H]2C[C@@]2(C(=O)NS(=O)(=O)C2(CO)CC2)NC(=O)[C@@H]2C[C@@H](Oc3nccc4cc(OC)c(F)cc34)CN2C(=O)[C@H]1NC(=O)OC(C)(C)C(F)(F)F` [Compound 4326] are 6.21 to 7.46 and 6.21 to 7.46.
The corresponding values for `CC[C@@H]1C[C@H](C)CC/C=C\[C@@H]2C[C@@]2(C(=O)NS(=O)(=O)C2CC2)NC(=O)[C@@H]2C[C@@H](Oc3cnnc4cc(OC)ccc34)CN2C(=O)[C@H]1NC(=O)OC(C)(C)C(F)(F)F` [Compound 4327] are 7.46 to 8.30 and 7.46 to 8.30.
Take `CC[C@@H]1C[C@H](C)CC/C=C\[C@@H]2C[C@@]2(C(=O)NS(=O)(=O)C2(C)CC2)NC(=O)[C@@H]2C[C@@H](Oc3ncc(OC)c4ccc(F)cc34)CN2C(=O)[C@H]1NC(=O)N1CC(C)OC(C)C1` (stereo partly drawn) [Compound 4328, N-((2R,6S,7R,9R,13aS,14aR,16aS,Z)-7-ethyl-2-((7-fluoro-4-methoxyisoquinolin-1-yl)oxy)-9-methyl-14a-(((1-methylcyclopropyl)sulfonyl)carbamoyl)-5,16-dioxo-1,2,3,5,6,7,8,9,10,11,13a,14,14a,15,16,16a-hexadecahydrocyclopropa[e]pyrrolo[1,2-a][1,4]diazacyclopentadecin-6-yl)-2,6-dimethylmorpholine-4-carboxamide]: the pEC50 in experiment [1] (read-out: LE_1b (EC50, range)) is 8.30 to 9.00; in experiment [2] (read-out: LE_1a (EC50, range)) it was 8.30 to 9.00.
As for `CC[C@@H]1C[C@H](C)CC/C=C\[C@@H]2C[C@@]2(C(=O)NS(=O)(=O)C2(C)CC2)NC(=O)[C@@H]2C[C@@H](Oc3nccc4cc(OC)c(F)cc34)CN2C(=O)[C@H]1NC(=O)C1(C(F)(F)F)CC1` [Compound 4331, (2R,6S,7R,9R,13aS,14aR,16aS,Z)-7-ethyl-2-((7-fluoro-6-methoxyisoquinolin-1-yl)oxy)-9-methyl-N-((1-methylcyclopropyl)sulfonyl)-5,16-dioxo-6-(1-(trifluoromethyl)cyclopropanecarboxamido)-1,2,3,5,6,7,8,9,10,11,13a,14,14a,15,16,16a-hexadecahydrocyclopropa[e]pyrrolo[1,2-a][1,4]diazacyclopentadecine-14a-carboxamide], the pEC50 in experiment [1] (read-out: LE_1b (EC50, range)) was 9.00 to 9.29; in experiment [2] (read-out: LE_1a (EC50, range)), 8.30 to 9.00.

The record behind these values is US9499550B2 (BRISTOL-MYERS SQUIBB COMPANY, priority 2012, dated 2016).
